Measurements: ChEMBL document CHEMBL3108720, “Polygonumosides A-D, stilbene derivatives from processed roots of Polygonum multiflorum” (J Nat Prod, 2014)

Tested on: Radical scavenging activity
Experiment: Antioxidant activity of the compound assessed as DPPH free radical scavenging activity after 30 mins
Format: functional

| IC50 | SMILES |
| --- | --- |
| 298 µM | O=c1oc2cc(O[C@@H]3O[C@H](CO)[C@@H](O)[C@H](O)[C@H]3O)c3c(c2c2c(O)c(O)c(O)cc12)O[C@H](c1ccc(O)cc1)C3 |
| 569 µM | O=c1oc2cc(O[C@@H]3O[C@H](CO)[C@@H](O)[C@H](O)[C@H]3O)c3c(c2c2c(O)c(O)c(O)cc12)O[C@@H](c1ccc(O)cc1)C3 |
| > 2000 µM | OC[C@H]1O[C@@H](Oc2c(O)cc(O)cc2[C@@H](O)[C@H](c2ccc(O)cc2)c2c(O)cc(O)c(O[C@@H]3O[C@H](CO)[C@@H](O)[C@H](O)[C@H]3O)c2/C=C/c2ccc(O)cc2)[C@H](O)[C@@H](O)[C@@H]1O |
| > 2000 µM | OC[C@H]1O[C@@H](Oc2c(O)cc(O)cc2[C@H](O)[C@@H](c2ccc(O)cc2)c2c(O)cc(O)c(O[C@@H]3O[C@H](CO)[C@@H](O)[C@H](O)[C@H]3O)c2/C=C/c2ccc(O)cc2)[C@H](O)[C@@H](O)[C@@H]1O |
